Laboratory results reported in patent US9120749B2, “Quinoline derivatives and MELK inhibitors containing the same” (ONCOTHERAPY SCIENCE, INC., priority 2010, dated 2015).
Structures can show the parent of a compound that is named as a salt. Where two headings read alike, the source gives them in different places.

Experiments:
[1] = tested on: T47D cells; assay: Cell-based assay: anti-proliferative activity, Cell Counting Kit-8, 72 hours (T47D)
Method in brief: (§1)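 First, lysates underwent western blotting with anti-MELK antibody to establish expression. Next, cells went into 96-well plates. Then candidate inhibitors were added. Finally, viability was determined by CCK-8 at 72 h and IC50 computed.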

[2] = tested on: BT-549 cells; assay: Cell-based assay: anti-proliferative activity, Cell Counting Kit-8, 72 hours (BT-549); settings: BT549 cells, MELK-expressing, Cell Counting Kit-8 at 72 hours
Protocol: To evaluate the expression status of MELK in several cell lines, western blot analysis was performed using crude cell lysate collected from those cells. Anti-MELK antibody (clone 31, BD Biosciences) was used to visualize the expression.
Active candidate inhibitors against MELK were evaluated for their target-specific cytotoxicity using T47D, A549, BT-549, and HT-1197 cells was used for negative control. 100 micro-L of cell suspension was seeded onto 96-well microtiter plate (ViewPlate-96FTC, PerkinElmer). The initial cell concentration of T47D, A549, BT-549, and HT-1197 were 3,000 cells/well, 2,000 cells/well and 2,500 cells/well, respectively. Cellular growth was determined using Cell Counting Kit-8 (DOJINDO) at 72 hours after the exposure of the candidate inhibitors. […] Accurate IC50 values were calculated as described previously.

[3] = biological target: MELK (Homo sapiens, UniProt Q14680); assay: Kinase assay: MELK activity, phosphorylation of FITC-labeled histone H3 peptide measured by IMAP fluorescence polarization; type: biochemical; settings: 50 micro-M ATP, IMAP fluorescence polarization, read-out: IC50 (μM) (kinase assay)
MELK, sequence (Q14680 whole entry, looked up): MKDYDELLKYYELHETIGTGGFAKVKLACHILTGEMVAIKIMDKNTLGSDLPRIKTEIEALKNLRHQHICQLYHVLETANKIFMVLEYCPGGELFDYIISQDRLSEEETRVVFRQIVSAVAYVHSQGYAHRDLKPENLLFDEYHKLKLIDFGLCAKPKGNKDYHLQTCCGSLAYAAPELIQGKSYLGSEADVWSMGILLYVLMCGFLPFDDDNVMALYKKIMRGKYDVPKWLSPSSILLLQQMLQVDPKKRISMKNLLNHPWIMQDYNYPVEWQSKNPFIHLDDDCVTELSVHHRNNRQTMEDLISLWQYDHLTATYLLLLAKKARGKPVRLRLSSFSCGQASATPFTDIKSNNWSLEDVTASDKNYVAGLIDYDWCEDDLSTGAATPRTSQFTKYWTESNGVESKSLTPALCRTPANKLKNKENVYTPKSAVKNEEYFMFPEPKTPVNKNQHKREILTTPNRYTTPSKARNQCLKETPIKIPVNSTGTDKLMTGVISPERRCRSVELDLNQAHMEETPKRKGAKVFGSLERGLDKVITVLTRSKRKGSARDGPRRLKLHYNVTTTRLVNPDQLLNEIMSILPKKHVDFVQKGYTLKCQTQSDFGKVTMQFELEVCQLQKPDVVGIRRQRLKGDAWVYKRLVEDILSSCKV
Method in brief: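 Kinase reactions ran with or without test compound (final DMSO 1%) on a fluorescein-tagged H3 peptide. Progressive binding solution was added to terminate them. After a half-hour room-temperature incubation, polarization was measured.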

[4] = tested on: HT-1197 cells; assay: Cell-based assay: anti-proliferative activity, Cell Counting Kit-8, 72 hours (HT-1197, negative control without MELK expression)
Method in brief: as §1

[5] = tested on: A549 cells; assay: Cell-based assay: anti-proliferative activity, Cell Counting Kit-8, 72 hours (A549)
Method in brief: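 A549 cells were seeded in 96-well plates and exposed to candidate inhibitors for 72 hours. Cell growth was then measured with Cell Counting Kit-8, and IC50 values were calculated from the resulting growth data.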

[6] = tested on: DU4475 cells; assay: Cell-based assay: anti-proliferative activity, Cell Counting Kit-8, 72 hours (DU4475)
[7] = tested on: 22Rv1 cells; assay: Cell-based assay: anti-proliferative activity, Cell Counting Kit-8, 72 hours (22Rv1)
[8] = MELK-expressing, Cell Counting Kit-8 at 72 hours, dihydrochloride
[9] = Homo sapiens, HT1197, 72 h, HT1197 cells (negative control, no MELK expression), 72 hours
[10] = Homo sapiens, A549, 72 h, 72 hours

| SMILES | IC50 ([1]; Homo sapiens, T47D, 72 h) | IC50 ([6]; Homo sapiens, DU-4475, 72 h) | IC50 ([7]; Homo sapiens, 22Rv1, 72 h) | IC50 ([3]; MELK kinase assay) | IC50 [4, 9] | IC50 [5, 10] | also measured |
| --- | --- | --- | --- | --- | --- | --- | --- |
| N[C@H]1CC[C@H](Nc2c(C(=O)C3CC3)cnc3ccc(-c4ccc(O)cc4)cc23)CC1 [Example 55, {4-[trans-4-Aminocyclohexylamino]-6-(4-hydroxyphenyl)quinolin-3-yl}(cyclopropyl)methanone] |  |  |  |  |  |  | IC50 ([1]; Homo sapiens, T47D, 72 h, MELK-expressing, Cell Counting Kit-8 at 72 hours): 0.2 µM; IC50 ([2]; Homo sapiens, BT-549, 72 h): 0.43 µM; IC50 ([3]; FITC-labeled histone H3 peptide substrate): 0.021 µM; IC50 ([4]; Homo sapiens, HT1197, 72 h, HT1197 cells, no MELK expression (negative control), Cell Counting Kit-8 at 72 hours): 2 µM; IC50 ([5]; Homo sapiens, A549, 72 h, MELK-expressing, Cell Counting Kit-8 at 72 hours): 0.48 µM |
| CCN(CC)C1CCC(Nc2c(C(=O)C3CC3)cnc3ccc(-c4cc(Cl)c(O)c(OC)c4)cc23)CC1 (stereo not drawn) [Example 185(b), {6-(3-Chloro-4-hydroxy-5-methoxyphenyl)-4-[4-(diethylamino)cyclohexylamino]quinolin-3-yl}(cyclopropyl)methanone dihydrochloride] |  |  |  |  |  |  | IC50 [1, 8]: 0.49 µM; IC50 ([2]; dihydrochloride): 1 µM; IC50 ([4]; HT1197 cells, no MELK expression (negative control), Cell Counting Kit-8 at 72 hours, dihydrochloride): 4.7 µM; IC50 [5, 8]: 0.18 µM |
| CC(=O)c1c(C)nc2ccc(-c3cc(Cl)c(O)c(Cl)c3)cc2c1Nc1ccc(N2CCN(C)CC2)nc1 [Example 838, 1-(6-(3,5-dichloro-4-hydroxyphenyl)-2-methyl-4-(6-(4-methylpiperazin-1-yl)pyridin-3-ylamino)quinolin-3-yl)ethanone hydrochloride] | 17 µM | 14 µM | 7.2 µM | 0.097 µM | 25 µM | 11 µM |  |
| CCC(=O)c1cnc2ccc(-c3cc(Cl)c(O)c(Cl)c3)cc2c1N[C@H]1CC[C@H](CN2CCCC2)CC1 [Example 843] | 0.15 µM | 0.057 µM | 0.19 µM | 0.0016 µM | 4.2 µM | 0.15 µM |  |
| CC(=O)c1cnc2ccc(-c3cc(F)c(O)c(Cl)c3)cc2c1N[C@H]1CC[C@H](CN2CCC[C@H]2CO)CC1 [Example 844, 1-(6-(3-chloro-5-fluoro-4-hydroxyphenyl)-4-((1S,4r)-4-(((S)-2-(hydroxymethyl)pyrrolidin-1-yl)methyl)cyclohexylamino)quinolin-3-yl)ethanone] | 0.067 µM | 0.092 µM | 0.18 µM | 0.0046 µM | 3.3 µM | 0.18 µM |  |
| CCN(C)C[C@H]1CC[C@H](Nc2c(C(C)=O)cnc3ccc(-c4cc(F)c(O)c(Cl)c4)cc23)CC1 [Example 845] | 0.063 µM | 0.069 µM | 0.11 µM | 0.00204 µM | 1.4 µM | 0.14 µM |  |
| CCC(=O)c1cnc2ccc(-c3cc(F)c(O)c(Cl)c3)cc2c1N[C@H]1CC[C@H](CN2CCCC2)CC1 [Example 846] | 0.096 µM | 0.071 µM | 0.16 µM | 0.0023 µM | 0.71 µM | 0.13 µM |  |
| CC(=O)c1cnc2ccc(-c3cc(F)c(O)c(Cl)c3)cc2c1Nc1ccc(OCCN(C)C)nc1 [Example 848, 1-(6-(3-chloro-5-fluoro-4-hydroxyphenyl)-4-(6-(2-(dimethylamino)ethoxy)pyridin-3-ylamino)quinolin-3-yl)ethanone hydrochloride] | 0.14 µM | 0.16 µM | 0.44 µM | 0.011 µM | 5.3 µM | 0.29 µM |  |
| CC(=O)c1cnc2ccc(-c3cc(F)c(O)c(Cl)c3)cc2c1NC1CCC(C(=O)N2CCN(C)CC2)CC1 (stereo not drawn) [Example 849, 1-(6-(3-chloro-5-fluoro-4-hydroxyphenyl)-4-(4-(4-methylpiperazine-1-carbonyl)cyclohexylamino)quinolin-3-yl)ethanone hydrochloride] | 0.47 µM | 1 µM | 1 µM | 0.018 µM | 4.5 µM | 1.3 µM |  |
| CC(=O)c1cnc2ccc(-c3cc(Cl)c(O)c(Cl)c3)cc2c1NC1CCCN(CCN(C)C)C1 (stereo not drawn) [Example 850, 1-(6-(3,5-dichloro-4-hydroxyphenyl)-4-(1-(2-(dimethylamino)ethyl)piperidin-3-ylamino)quinolin-3-yl)ethanone] | 1.1 µM | 0.32 µM | 1.2 µM | 0.0019 µM | 4 µM | 0.89 µM |  |
| CC(=O)c1cnc2ccc(-c3cc(F)c(O)c(Cl)c3)cc2c1NC1CCCN(CCN(C)C)C1 (stereo not drawn) [Example 851, 1-(6-(3-chloro-5-fluoro-4-hydroxyphenyl)-4-(1-(2-(dimethylamino)ethyl)piperidin-3-ylamino)quinolin-3-yl)ethanone] | 1.6 µM | 0.65 µM | 1.5 µM | 0.04 µM | 6 µM | 1.6 µM |  |
| CC(=O)c1cnc2ccc(-c3cc(Cl)c(O)c(Cl)c3)cc2c1Nc1ccc(OCCN(C)C)nc1 [Example 852, 1-(6-(3,5-dichloro-4-hydroxyphenyl)-4-(6-(2-(dimethylamino)ethoxy)pyridin-3-ylamino)quinolin-3-yl)ethanone hydrochloride] | 0.16 µM | 0.088 µM | 0.55 µM | 0.0028 µM | 22 µM | 0.29 µM |  |
| CC(=O)c1cnc2ccc(-c3cc(F)c(O)c(Cl)c3)cc2c1Nc1ccc(N2CCC(N(C)C)C2)nc1 (stereo not drawn) [Example 853, 1-(6-(3-chloro-5-fluoro-4-hydroxyphenyl)-4-((6-(3-(dimethylamino)pyrrolidin-1-yl)pyridin-3-yl)amino)quinolin-3-yl)ethanone] | 0.2 µM | 0.38 µM | 0.65 µM | 0.018 µM | 10 µM | 0.45 µM |  |
| CC(=O)c1cnc2ccc(-c3cc(Cl)c(O)c(Cl)c3)cc2c1Nc1ccc(N2CCC(N(C)C)C2)nc1 (stereo not drawn) [Example 854, 1-(6-(3,5-dichloro-4-hydroxyphenyl)-4-((6-(3-(dimethylamino)pyrrolidin-1-yl)pyridin-3-yl)amino)quinolin-3-yl)ethanone] | 0.25 µM | 0.28 µM | 0.51 µM | 0.0032 µM |  | 0.39 µM | IC50 ([4]; HT1197 cells (negative control, no MELK expression), 72 hours): 10 µM |
| CC(=O)c1cnc2ccc(-c3cc(Cl)c(O)c(Cl)c3)cc2c1Nc1ccc(N2CCC(N(C)C)C2)nc1 (stereo not drawn) [Example 855, 1-(6-(3,5-dichloro-4-hydroxyphenyl)-4-((6-(3-(dimethylamino)pyrrolidin-1-yl)pyridin-3-yl)amino)quinolin-3-yl)ethanone hydrochloride] |  |  |  |  |  |  | IC50 ([1]; 72 hours, hydrochloride): 0.26 µM; IC50 ([6]; hydrochloride): 0.23 µM; IC50 ([7]; hydrochloride): 0.64 µM; IC50 ([3]; MELK kinase assay, hydrochloride): 0.0021 µM; IC50 ([4]; HT1197 cells (negative control, no MELK expression), 72 hours, hydrochloride): 73 µM; IC50 ([5]; 72 hours, hydrochloride): 0.38 µM |
| CCC(=O)c1cnc2ccc(-c3cc(F)c(O)c(Cl)c3)cc2c1Nc1ccc(N2CCC(N(C)C)C2)nc1 (stereo not drawn) [Example 860, 1-(6-(3-chloro-5-fluoro-4-hydroxyphenyl)-4-((6-(3-(dimethylamino)pyrrolidin-1-yl)pyridin-3-yl)amino)quinolin-3-yl)propan-1-one] | 0.14 µM | 0.24 µM | 0.45 µM | 0.0062 µM | 3.6 µM | 0.29 µM |  |
| CC(=O)c1cnc2ccc(-c3cc(Cl)c(O)c(Cl)c3)cc2c1N[C@H]1CCC[C@H](CCN(C)C)C1 [Example 861, 1-(6-(3,5-dichloro-4-hydroxyphenyl)-4-(((1S,3R)-3-(2-(dimethylamino)ethyl)cyclohexyl)amino)quinolin-3-yl)ethanone hydrochloride] | 0.22 µM | 0.19 µM | 0.24 µM | 0.0032 µM | 1 µM | 0.25 µM |  |
| CC(=O)c1cnc2ccc(-c3cc(F)c(O)c(Cl)c3)cc2c1N[C@H]1CCC[C@H](CCN(C)C)C1 [Example 862, 1-(6-(3-chloro-5-fluoro-4-hydroxyphenyl)-4-(((1S,3R)-3-(2-(dimethylamino)ethyl)cyclohexyl)amino)quinolin-3-yl)ethanone hydrochloride] | 0.26 µM | 0.2 µM | 0.2 µM | 0.0067 µM | 1.1 µM | 0.29 µM |  |
